# Data reported in patent US6753335B2, “Quinolinyl-piperidin-4-ylidene-methyl-benzamide derivatives for the treatment of pain” (AstraZeneca AB, priority 2000, dated 2004).
# What was measured:
# Format in all cases: biochemical
# [1] = biological target: T1, delta receptors, mouse brain (Mus musculus, UniProt P32300); test: GTP[γ]35S binding functional assay, homogenised mouse brain membranes
# T1 construct: from tissue; host or cells: mouse brain homogenate
# Method: (§1) B. Mouse and rat brains were weighed and rinsed in ice-cold PBS (containing 2.5 mM EDTA, pH 7.4). The brains were homogenized with a polytron for 15 sec (mouse) or 30 sec (rat) in ice-cold lysis buffer (50mM Tris, pH 7.0, 2.5mM EDTA, with phenylmethylsulfonyl fluoride added just prior use to […] from a 0.5 M stock in DMSO:ethanol).
# (§2) The agonist activity of the compounds is measured by determining the degree to which the compounds receptor complex activates the binding of GTP to G-proteins to which the receptors are coupled. In the GTP binding assay, GTP[γ]^35S is combined with test compounds and membranes from HEK-293S cells expressing the cloned human opioid receptors or from homogenised rat and mouse brain. Agonists stimulate GTP[γ]^35S binding in these membranes. The EC50 and Emax values of compounds are determined from dose-response curves. Right shifts of the dose response curve by the delta antagonist naltindole are performed to verify that agonist activity is mediated through delta receptors.
# [2] = biological target: T2, delta receptors, rat brain (Rattus norvegicus, UniProt P33533); test: GTP[γ]35S binding functional assay, homogenised rat brain membranes
# T2 construct: from tissue; host or cells: rat brain homogenate
# T2 sequence (P33533 whole entry): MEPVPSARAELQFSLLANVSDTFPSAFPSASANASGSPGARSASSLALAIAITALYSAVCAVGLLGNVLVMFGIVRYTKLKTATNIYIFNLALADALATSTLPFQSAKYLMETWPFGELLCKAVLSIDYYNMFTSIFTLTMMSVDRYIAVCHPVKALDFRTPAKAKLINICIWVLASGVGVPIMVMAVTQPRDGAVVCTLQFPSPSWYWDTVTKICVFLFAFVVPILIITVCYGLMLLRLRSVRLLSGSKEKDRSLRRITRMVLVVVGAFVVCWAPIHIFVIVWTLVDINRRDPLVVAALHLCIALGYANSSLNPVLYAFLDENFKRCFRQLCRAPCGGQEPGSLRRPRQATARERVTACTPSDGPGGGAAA
# Method: as §1, §2
# [3] = biological target: T3, cloned human δ receptor (Homo sapiens, UniProt P41143); test: GTP[γ]35S binding functional assay, membranes from HEK-293S cells expressing cloned human opioid receptors (HDELTA)
# T3 construct: expressed in transfected cells; host or cells: human 293S (HEK-293S) cells, geneticin-selected
# T3 sequence (P41143 whole entry): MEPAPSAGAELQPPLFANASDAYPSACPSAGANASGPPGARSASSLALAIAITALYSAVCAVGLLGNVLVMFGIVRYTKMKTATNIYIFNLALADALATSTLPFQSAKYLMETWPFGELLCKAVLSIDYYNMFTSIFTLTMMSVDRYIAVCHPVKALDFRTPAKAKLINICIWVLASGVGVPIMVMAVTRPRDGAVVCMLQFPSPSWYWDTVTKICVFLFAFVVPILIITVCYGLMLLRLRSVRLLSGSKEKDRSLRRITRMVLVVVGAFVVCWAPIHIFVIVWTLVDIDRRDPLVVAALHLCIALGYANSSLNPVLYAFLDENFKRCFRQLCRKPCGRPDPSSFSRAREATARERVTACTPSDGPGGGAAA
# Method: A. Human 293S cells expressing cloned human μ, δ, and κ receptors and neomycin resistance were grown in suspension at 37° C. and 5% CO2 in shaker flasks containing calcium-free DMEM10% FBS, 5% BCS, 0.1% Pluronic F-68, and 600 μg/ml geneticin.
# Cells were pelleted and resuspended in lysis buffer (50 mM Tris, pH 7.0, 2.5 mM EDTA, with PMSF added just prior to use to 0.1 mM from a 0.1 M stock in ethanol), incubated on ice for 15 min, then homogenized with a polytron for 30 sec. The suspension was spun at 1000 g (max) for 10 min at 4° C. The supernatant was saved on ice and the pellets resuspended and spun as before. The supernatants from both spins were combined and spun at 46,000 g (max) for 30 min. The pellets were resuspended in cold Tris buffer (50 mM Tris/Cl, pH 7.0) and spun again. The final pellets were resuspended in membrane buffer (50 mM Tris, […], pH 7.0). Aliquots (1 ml) in polypropylene tubes were frozen in dry ice/ethanol and stored at −70° C. until use. The protein concentrations were determined by a modified Lowry assay with sodium dodecyl sulfate.
# as §2
# T1 sequence (P32300 whole entry): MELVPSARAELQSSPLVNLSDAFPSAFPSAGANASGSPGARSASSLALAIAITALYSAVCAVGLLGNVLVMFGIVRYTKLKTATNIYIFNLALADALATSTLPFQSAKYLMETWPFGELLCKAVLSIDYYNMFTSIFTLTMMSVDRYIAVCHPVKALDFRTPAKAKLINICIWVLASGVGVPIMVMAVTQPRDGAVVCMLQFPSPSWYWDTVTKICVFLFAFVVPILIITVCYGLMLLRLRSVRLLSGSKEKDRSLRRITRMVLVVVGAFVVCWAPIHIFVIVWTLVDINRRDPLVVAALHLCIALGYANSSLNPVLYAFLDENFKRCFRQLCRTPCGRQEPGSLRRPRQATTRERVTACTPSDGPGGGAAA
SMILES,Emax [1],Emax [2],Emax [3]
CCN(CC)C(=O)c1ccc(C(=C2CCN(Cc3ccccn3)CC2)c2cccc3cccnc23)cc1 [Example 7],124%,126%,97.6%
CCN(CC)C(=O)c1ccc(C(=C2CCN(Cc3ccncc3)CC2)c2cccc3cccnc23)cc1 [Example 10],110%,109%,118%
CCN(CC)C(=O)c1ccc(C(=C2CCN(Cc3ncc[nH]3)CC2)c2cccc3cccnc23)cc1 [Example 8],138%,148%,111%
CCN(CC)C(=O)c1ccc(C(=C2CCN(Cc3c[nH]cn3)CC2)c2cccc3cccnc23)cc1 [Example 9],123%,112%,100%
"CCN(CC)C(=O)c1ccc(C(=C2CCN(Cc3cccs3)CC2)c2cccc3cccnc23)cc1 [Example 4, N,N-diethyl-4-{8-quinolinyl[1-(2-thienylmethyl)-4-piperidinylidene]methyl}benzamide]",140%,120%,98.5%
"CCN(CC)C(=O)c1ccc(C(=C2CCN(Cc3ccco3)CC2)c2cccc3cccnc23)cc1 [Example 3, N,N-diethyl-4-[[1-(2-furylmethyl)-4-piperidinylidene](8-quinoline)methyl]benzamide]",146%,130%,103%
"CCN(CC)C(=O)c1ccc(C(=C2CCN(Cc3ccsc3)CC2)c2cccc3cccnc23)cc1 [Example 6, N,N-diethyl-4-{8-quinolinyl[1-(3-thienylmethyl)-4-piperidinylidene]methyl}benzamide]",140%,135%,123%
"CCN(CC)C(=O)c1ccc(C(=C2CCN(Cc3ccccc3)CC2)c2cccc3cccnc23)cc1 [Example 2, N,N-diethyl-4-(8-quinolinyl-N-benzyl-piperidin-4-ylidene-methyl)-benzamide]",112%,104%,90.5%
"CCN(CC)C(=O)c1ccc(C(=C2CCN(Cc3ccoc3)CC2)c2cccc3cccnc23)cc1 [Example 5, N,N-diethyl-4-[[1-(3-furylmethyl)-4-piperidinylidene](8-quinolinyl)methyl]benzamide]",147%,135%,99%
